How the values were obtained:
Assay in all cases: relative viability (nuclei count vs DMSO), 5 days (fraction); higher = more cells survive
[1] = compound: CCC1=CN=CN=C1N2CCN(CC2)CC3=NC4=C(N3)C=C(C=C4)C(F)(F)F
Summary of the method: (§1)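 Lung cancer cell lines in 1536-well plates were kept overnight at 37 °C, then pinned with five library-drug doses (not always all listed) spaced by √10 on vehicle-anchored plates. After 5 days without medium change, cells were fixed, permeabilised and Hoechst-stained in one step, imaged at 4×, and nuclei were counted with MetaXpress. Viability is treated-well nuclei divided by vehicle-well nuclei, taken as the median over plates. Plates passed only with control CV below 25% and at least one doubling.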

[2] = compound: CCn1c(-c2nonc2N)nc2cnc(Oc3cccc(NC(=O)c4ccc(OCCN5CCOCC5)cc4)c3)cc21
Summary of the method: as §1

Mirin = compound: N=C1NC(=O)/C(=C/c2ccc(O)cc2)S1 [Mirin]
Summary of the method: as §1

| Cell Line | relative viability ([1]; 0.04 µM) | relative viability ([1]; 0.1265 µM) | relative viability ([1]; 0.4 µM) | relative viability ([1]; 1.265 µM) | relative viability ([1]; 4 µM) | relative viability ([2]; 0.04 µM) | relative viability ([2]; 0.1265 µM) | relative viability ([2]; 0.4 µM) | relative viability ([2]; 1.265 µM) | relative viability ([2]; 4 µM) | relative viability (Mirin; 0.25 µM) | relative viability (Mirin; 0.7906 µM) | relative viability (Mirin; 2.5 µM) | relative viability (Mirin; 7.906 µM) | relative viability (Mirin; 25 µM) |
| --- | --- | --- | --- | --- | --- | --- | --- | --- | --- | --- | --- | --- | --- | --- | --- |
| LCLC-103H | 1.02 | 0.927 | 0.928 | 0.841 | 1.11 | 1.09 | 0.981 | 0.783 | 0.705 | 0.775 | 0.99 | 0.977 | 1.05 | 0.929 | 1.07 |
| NCI-H2347 | 1.05 | 0.986 | 1.04 | 0.827 | 1.09 | 1.1 | 1.02 | 0.878 | 0.504 | 0.546 | 0.962 | 0.972 | 1.08 | 0.957 | 1.03 |
| NCI-H1792 | 0.79 | 0.749 | 0.814 |  | 0.96 | 1.05 | 0.773 | 0.343 | 0.458 | 0.599 | 0.775 | 0.925 | 0.859 | 0.711 | 1.06 |
| NCI-H647 | 0.891 | 0.915 | 0.828 | 0.711 | 1.03 | 1.08 | 0.707 | 0.705 | 0.458 | 0.55 | 1.11 | 0.864 | 0.975 | 0.918 | 0.904 |
| NCI-H1563 | 0.956 | 0.965 | 0.953 | 0.9 | 1 | 0.853 | 0.872 | 0.868 | 0.86 | 0.778 | 1.03 | 1.21 | 0.995 | 0.942 | 0.951 |
| NCI-H520 | 0.953 | 0.902 | 0.962 | 0.746 | 1.02 | 1.24 | 1.05 | 0.978 | 0.567 | 0.511 | 1 | 0.882 | 1.02 | 0.808 | 0.709 |
| HCC-366 | 1 | 0.979 | 0.988 |  | 1.05 | 1.01 | 1.03 | 0.836 | 0.0886 | 0.098 | 1.03 | 0.868 | 0.982 | 1.03 | 0.947 |
| NCI-H2085 | 0.896 | 0.912 | 0.949 | 0.918 | 0.972 | 1.09 | 0.919 | 0.826 | 0.778 | 0.765 | 0.981 | 0.979 | 1.01 | 0.957 | 0.99 |
| NCI-H522 | 0.833 | 1.03 | 0.931 | 0.799 | 0.919 | 1.13 | 0.815 | 0.74 | 0.576 | 0.698 | 0.979 | 0.9 | 1.06 | 0.753 | 0.655 |
| PC-3 [JPC-3] | 1.01 | 0.947 | 0.965 | 1.01 | 1.02 | 1.02 | 0.976 | 0.982 | 0.947 | 0.926 | 1.07 | 1.04 | 1.01 | 1.12 | 1.2 |
| HOP-62 | 1.03 | 0.946 | 0.95 | 0.936 | 1.06 | 1.13 | 1.02 | 0.899 | 0.549 | 0.537 | 0.979 | 1.07 | 0.983 | 0.856 | 1.1 |
| NCI-H2126 | 1 | 0.977 | 0.969 | 0.891 | 1.02 | 1.09 | 1.04 | 0.74 | 0.792 | 0.943 | 1.03 | 0.908 | 0.995 | 1 | 0.979 |
| NCI-H2087 | 1.05 | 0.958 | 0.973 | 0.854 | 0.716 | 1.21 | 0.812 | 0.844 | 0.698 | 0.637 | 1.01 | 1 | 0.983 | 0.896 | 1.2 |
| NCI-H1793 | 0.894 | 0.796 | 0.702 |  | 0.796 | 0.897 | 0.838 | 0.526 | 0.587 | 0.483 | 1.1 |  | 0.987 | 0.914 | 0.826 |
| RERF-LC-KJ | 0.956 | 0.968 | 1.01 | 0.924 | 0.991 | 1.02 | 0.971 | 0.872 | 0.619 | 0.637 | 1.07 | 1.08 | 1.01 | 1.04 | 1 |
| H3255 | 0.97 | 0.95 | 0.913 | 0.874 | 0.919 | 1.14 | 1.01 | 0.898 | 0.67 | 0.732 | 0.982 | 0.962 | 0.992 | 0.936 | 1 |
| EMC-BAC-2 | 0.77 | 0.877 | 0.925 | 0.802 | 1.15 | 0.94 | 0.862 | 0.43 | 0.405 | 0.343 | 0.993 | 0.907 | 1.01 | 0.857 | 0.971 |

| Cell Line | relative viability ([1]; 0.04 µM) | relative viability ([1]; 0.1265 µM) | relative viability ([1]; 0.4 µM) | relative viability ([1]; 1.265 µM) | relative viability ([1]; 4 µM) | relative viability ([2]; 0.04 µM) | relative viability ([2]; 0.1265 µM) | relative viability ([2]; 0.4 µM) | relative viability ([2]; 1.265 µM) | relative viability ([2]; 4 µM) | relative viability (Mirin; 0.25 µM) | relative viability (Mirin; 0.7906 µM) | relative viability (Mirin; 2.5 µM) | relative viability (Mirin; 7.906 µM) | relative viability (Mirin; 25 µM) |
| --- | --- | --- | --- | --- | --- | --- | --- | --- | --- | --- | --- | --- | --- | --- | --- |
| SW 900 | 0.842 | 0.928 | 0.866 | 0.626 | 0.857 | 0.892 | 0.946 | 0.917 | 0.716 | 0.83 | 1 | 0.773 | 0.888 | 0.98 | 0.869 |
| CAL-12T | 0.985 | 0.941 | 0.958 | 0.974 | 1.01 | 1.33 | 1.13 | 0.927 | 0.479 | 0.654 | 1.07 | 0.861 | 1.02 | 0.982 | 1.23 |
| NCI-H661 | 0.996 | 0.973 | 0.955 | 0.967 | 0.971 | 0.998 | 0.969 | 0.957 | 0.82 | 0.611 | 0.988 | 1.09 | 1.03 | 0.974 | 1.01 |
| SK-MES-1 | 1.04 | 0.975 | 0.983 | 1 | 0.985 | 1.1 | 0.915 | 0.82 | 0.709 | 0.746 | 1.02 | 1.1 | 1.05 | 1.12 | 1.28 |
| EBC-1 | 1.08 | 1.01 | 0.986 | 0.946 | 0.996 | 1.24 | 1.01 | 0.913 | 0.904 | 0.797 | 1.09 | 1.19 | 1.05 | 0.987 | 0.665 |
| NCI-H1355 | 1.01 | 0.935 | 0.918 | 0.931 | 1.04 | 1.04 | 1 | 0.776 | 0.632 | 0.487 | 0.997 | 0.982 | 0.949 | 0.942 | 1.08 |
| PC-14 | 0.97 | 0.919 | 0.99 | 0.979 | 1 | 1.08 | 0.834 | 0.809 | 0.729 | 0.653 | 0.975 | 0.906 | 1.03 | 1.05 | 1.13 |
| LK-2 | 0.989 | 1.01 | 0.832 | 0.718 | 0.912 | 1.23 | 1.19 | 0.774 | 0.686 | 0.843 | 0.881 | 0.686 | 1.03 | 0.647 | 0.534 |
| NCI-H1650 | 0.82 | 0.824 | 0.84 | 0.703 | 0.981 | 1.21 | 0.894 | 0.858 | 0.746 | 0.812 | 0.963 | 1.08 | 1 | 0.984 | 0.61 |
| IA-LM | 0.839 | 0.96 | 0.891 | 0.931 | 0.89 | 1.34 | 1.06 | 0.998 | 0.952 | 1.02 | 0.962 | 1.07 | 0.928 | 0.653 | 1.18 |
| NCI-H1703 | 0.953 | 0.914 | 0.819 | 0.73 | 0.968 | 1.02 | 0.809 | 0.616 | 0.635 | 0.41 | 1.07 | 0.925 | 0.966 |  | 0.83 |
| NCI-H441 | 1.09 | 0.926 | 0.896 | 0.877 | 1.09 | 1.26 | 1.12 | 0.541 | 0.807 | 0.727 | 1.11 | 1.01 | 1.1 | 0.886 | 0.993 |
| NCI-H727 | 1.05 | 0.909 | 0.981 | 0.603 | 0.91 | 1.21 | 1.15 | 0.767 | 0.986 | 0.947 | 1.14 | 0.918 | 1.06 | 1.27 | 1.15 |
| NCI-H23 | 0.852 | 0.918 | 0.812 | 0.742 | 0.954 | 1.21 | 1 | 0.567 | 0.674 | 0.589 | 1 |  | 0.907 | 0.819 | 0.907 |
| NCI-H1395 | 0.837 | 0.86 | 0.943 | 0.769 | 0.892 | 1.13 | 0.837 | 0.769 | 0.469 | 0.563 | 0.948 |  | 0.964 | 0.925 | 0.841 |
| NCI-H596 | 1.01 | 0.935 | 0.882 | 0.736 | 1.08 | 1.01 | 0.869 | 0.799 | 0.865 | 0.83 | 0.996 | 1 | 1.02 | 1.02 | 0.973 |
| NCI-H460 | 0.998 | 0.956 | 0.971 | 0.926 | 0.972 | 1.06 | 0.945 | 0.852 | 0.337 | 0.36 | 1.04 | 0.954 | 1.02 | 0.992 | 1.02 |

Reference: the supplement of paper PMC10307832
